Experimental data as given in US6586633B1, “Amine derivatives” (Pola Chemical Industries, Inc., priority 2001, dated 2003).
Like-named read-outs stand apart in the source and are kept apart here.

What was measured:
Test in all cases: Measurement of antifungal activity (minimum inhibitory concentration), agar dilution
Assay type in all cases: cell-based
M. gypseum IF08231 = conditions: Sabouraud's agar, one week at 27° C.; for MIC: Nannizzia gypsea, 168 h, read-out: MIC value (minimum compound concentration that definitely inhibited any visible growth)
Description: (§1) Measurement of Antifungal Activity (Measurement of Minimum Inhibitory Concentration)
(§2) Antifungal activity of representative compounds of the present invention against dermatophytes was investigated.
(§3) Briefly, strains of dermatophytes to be tested were grown on slant media prepared with Sabouraud's agar (product of Nissuiseiyaku; pepton 1.0%, glucose 4.0%, agar 1.5%, pH 5.9) at 27° C. for two weeks, so as to allow sufficient production of conidiospores. Subsequently, sterilized saline solution containing 0.05% (wt/vol) TWEEN 80 was added thereto, and while the surface of the each medium was scraped with a platinum loop, the conidiospores were deaggregated and suspended in the saline solution. The suspension was filtered through a double face sterilized gauze sheet so as to remove agar and hypha pellets. The filtrate was diluted with a saline solution so as to make the concentration of the conidiospores decrease to 10^6/ml by use of a cytometer, and the resultant dilute filtrate served as a test dermatophytes solution. Meanwhile, a stock solution was prepared by adding 1 ml of dimethylsulfoxide to 10 mg of a compound to be tested. An aliquot (500 μl) of the stock solution was combined with dimethylsulfoxide (500 μl), to thereby prepare a 2-fold dilute solution. Dilution was similarly repeated until 13 different dilute solutions ranging from 10 to 0.0025 mg/ml (concentrations of the ultimate test system: 100-0.025 μg/ml) were obtained. 100 μl each of the diluted solutions of the test compound was dispensed into the sterilized petri dish. A Sabouraud's agar (pepton 1.0%, glucose 4.0%, agar 1.5%, pH 5.9; 10 ml), which had been sterilized and dissolved, was added thereto, and the mixture was thoroughly mixed and solidified. Next, the above-prepared test dermatophytes solution was planted in amounts of 5 μl by use of a microplanter.

[1] = system: T. mentagrophytes IF05811; conditions: Sabouraud's agar, one week at 27° C.; for MIC: Trichophyton mentagrophytes, 168 h, read-out: MIC value (minimum compound concentration that definitely inhibited any visible growth)
Description: as §1, §2, §3

T. violaceum TIMM1264 = conditions: Sabouraud's agar, one week at 27° C.; for MIC: Trichophyton violaceum, 168 h, read-out: MIC value (minimum compound concentration that definitely inhibited any visible growth)
Description: as §1, §2, §3

T. rubrum IF09185 = conditions: Sabouraud's agar, one week at 27° C.; for MIC: Trichophyton rubrum, 168 h, read-out: MIC value (minimum compound concentration that definitely inhibited any visible growth)
Description: as §1, §2, §3

T. rubrum IF05808 = conditions: Sabouraud's agar, one week at 27° C.; for MIC: Trichophyton rubrum, 168 h, read-out: MIC value (minimum compound concentration that definitely inhibited any visible growth)
Description: as §1, §2, §3

[2] = system: T. mentagrophytes TIMM1177; conditions: Sabouraud's agar, one week at 27° C.; for MIC: Trichophyton mentagrophytes, 168 h, read-out: MIC value (minimum compound concentration that definitely inhibited any visible growth)
Description: as §1, §2, §3

[3] = system: T. mentagrophytes IF07552; conditions: Sabouraud's agar, one week at 27° C.; for MIC: Trichophyton mentagrophytes, 168 h, read-out: MIC value (minimum compound concentration that definitely inhibited any visible growth)
Description: as §1, §2, §3

[4] = system: T. mentagrophytes TIMM1189; conditions: Sabouraud's agar, one week at 27° C.; for MIC: Trichophyton mentagrophytes, 168 h, read-out: MIC value (minimum compound concentration that definitely inhibited any visible growth)
Description: as §1, §2, §3

M. canis TIMM0760 = conditions: Sabouraud's agar, one week at 27° C.; for MIC: Microsporum canis, 168 h, read-out: MIC value (minimum compound concentration that definitely inhibited any visible growth)
Description: as §1, §2, §3

| SMILES | MIC (M. gypseum IF08231; H. gypseum IF08231 (Table 1)) | MIC [1] | MIC (T. violaceum TIMM1264) | MIC (T. rubrum IF09185) | MIC (T. rubrum IF05808) | MIC [2] | MIC [3] | MIC [4] | MIC (M. gypseum IF08231; M. gypseum IF08231 (Table 2)) | MIC (M. canis TIMM0760) | MIC value (minimum compound concentration that definitely inhibited any visible growth) (M. gypseum IF08231; H. gypseum IF08231 (Table 1)) | MIC value (minimum compound concentration that definitely inhibited any visible growth) [1] | MIC value (minimum compound concentration that definitely inhibited any visible growth) (T. violaceum TIMM1264) | MIC value (minimum compound concentration that definitely inhibited any visible growth) (T. rubrum IF09185) | MIC value (minimum compound concentration that definitely inhibited any visible growth) (T. rubrum IF05808) | MIC value (minimum compound concentration that definitely inhibited any visible growth) [2] | MIC value (minimum compound concentration that definitely inhibited any visible growth) [3] | MIC value (minimum compound concentration that definitely inhibited any visible growth) (M. canis TIMM0760) | MIC value (minimum compound concentration that definitely inhibited any visible growth) [4] |
| --- | --- | --- | --- | --- | --- | --- | --- | --- | --- | --- | --- | --- | --- | --- | --- | --- | --- | --- | --- |
| C=C(C)c1cc(C)cc(CN(C)C/C=C/C#CC(C)(C)C)c1.Cl [Compound 19, trans-N-(6,6-Dimethyl-2-hepten-4-ynyl)-N-methyl-(3-isopropenyl-5-methylbenzyl)amine Hydrochloride] | 0.2 µg/mL | 0.1 µg/mL | 0.1 µg/mL | 0.1 µg/mL | 0.1 µg/mL | 0.1 µg/mL | 0.05 µg/mL | 0.05 µg/mL | – | 0.1 µg/mL | – | – | – | – | – | – | – | – | – |
| C/C=C(/C)c1cccc(CN(C)C/C=C/C#CC(C)(C)C)c1.Cl [Compound 27, trans-, cis-N-(6,6-Dimethyl-2-hepten-4-ynyl)-N-methyl-[3-(1-methyl-1-propenyl)benzyl]amine Hydrochloride] | – | – | – | – | – | – | – | – | – | – | 6.25 µg/mL | 1.56 µg/mL | 1.56 µg/mL | 1.56 µg/mL | 1.56 µg/mL | 1.56 µg/mL | 1.56 µg/mL | 0.78 µg/mL | 1.56 µg/mL |
| CC(C)=Cc1cccc(CN(C)C/C=C/C#CC(C)(C)C)c1.Cl [Compound 12, trans-N-(6,6-Dimethyl-2-hepten-4-ynyl)-N-methyl-[3-(2-methyl-1-propenyl)benzyl]amine Hydrochloride] | 0.78 µg/mL | 0.39 µg/mL | 0.39 µg/mL | 0.2 µg/mL | 0.39 µg/mL | 0.78 µg/mL | 0.39 µg/mL | 0.39 µg/mL | – | 0.2 µg/mL | – | – | – | – | – | – | – | – | – |

Continued, in another order:

| MIC (M. gypseum IF08231; H. gypseum IF08231 (Table 1)) | MIC [1] | MIC (T. violaceum TIMM1264) | MIC (T. rubrum IF09185) | MIC (T. rubrum IF05808) | MIC [2] | MIC [3] | MIC [4] | MIC (M. gypseum IF08231; M. gypseum IF08231 (Table 2)) | MIC (M. canis TIMM0760) | SMILES | MIC value (minimum compound concentration that definitely inhibited any visible growth) (M. gypseum IF08231; H. gypseum IF08231 (Table 1)) | MIC value (minimum compound concentration that definitely inhibited any visible growth) [1] | MIC value (minimum compound concentration that definitely inhibited any visible growth) (T. violaceum TIMM1264) | MIC value (minimum compound concentration that definitely inhibited any visible growth) (T. rubrum IF09185) | MIC value (minimum compound concentration that definitely inhibited any visible growth) (T. rubrum IF05808) | MIC value (minimum compound concentration that definitely inhibited any visible growth) [2] | MIC value (minimum compound concentration that definitely inhibited any visible growth) [3] | MIC value (minimum compound concentration that definitely inhibited any visible growth) (M. canis TIMM0760) | MIC value (minimum compound concentration that definitely inhibited any visible growth) [4] |
| --- | --- | --- | --- | --- | --- | --- | --- | --- | --- | --- | --- | --- | --- | --- | --- | --- | --- | --- | --- |
| 3.12 µg/mL | 12.5 µg/mL | 12.5 µg/mL | 12.5 µg/mL | 12.5 µg/mL | 12.5 µg/mL | 12.5 µg/mL | 12.5 µg/mL | – | – | C=C(C)c1cccc(CN(C)C/C=C/C#CC(C)(C)C)c1C.Cl [Compound 52, trans-N-(6,6-Dimethyl-2-hepten-4-ynyl)-N-methyl-(3-isopropenyl-2-methylbenzyl)amine Hydrochloride] | – | – | – | – | – | – | – | – | – |
| – | 1.56 µg/mL | 3.12 µg/mL | 0.78 µg/mL | 0.78 µg/mL | 3.12 µg/mL | 1.56 µg/mL | 1.56 µg/mL | 1.56 µg/mL | 1.56 µg/mL | C=C(C)c1ccccc1CN(C)Cc1ccc(C(C)(C)C)cc1.Cl [Compound 108, N-(4-tert-Butylbenzyl)-N-methyl-(2-isopropenylbenzyl)amine Hydrochloride] | – | – | – | – | – | – | – | – | – |
| – | 0.1 µg/mL | 0.1 µg/mL | 0.05 µg/mL | 0.05 µg/mL | 0.1 µg/mL | 0.05 µg/mL | 0.05 µg/mL | 0.1 µg/mL | 0.05 µg/mL | C=C(C)c1cc(C)cc(CN(C)Cc2ccc(C(C)(C)C)cc2)c1.Cl [Compound 88, N-(4-tert-Butylbenzyl)-N-methyl-(3-isopropenyl-5-methylbenzyl)amine hydrochloride] | – | – | – | – | – | – | – | – | – |
| 0.39 µg/mL | 0.1 µg/mL | 0.2 µg/mL | 0.1 µg/mL | 0.1 µg/mL | 0.1 µg/mL | 0.1 µg/mL | 0.1 µg/mL | – | 0.2 µg/mL | C=C(C)c1cc(F)cc(CN(C)C/C=C/C#CC(C)(C)C)c1.Cl [Compound 64, trans-N-(6,6-Dimethyl-2-hepten-4-ynyl)-N-methyl-(3-fluoro-5-isopropenylbenzyl)amine Hydrochloride] | – | – | – | – | – | – | – | – | – |
| – | 0.39 µg/mL | 0.2 µg/mL | 0.1 µg/mL | 0.1 µg/mL | 0.2 µg/mL | 0.1 µg/mL | 0.2 µg/mL | 0.39 µg/mL | 0.2 µg/mL | C=C(C)c1cccc(CN(C)Cc2ccc(C(C)(C)C)cc2)c1.Cl [Compound 77, N-(4-tert-Butylbenzyl)-N-methyl-(3-isopropenylbenzyl)amine Hydrochloride] | – | – | – | – | – | – | – | – | – |
